Data on 11 compounds can be found in ChEMBL document CHEMBL1134939, “A survey of cyclic replacements for the central diamide moiety of inhibitors of inosine monophosphate dehydrogenase” (Bioorg Med Chem Lett, 2002).

The structures appear in SMILES notation.

The first assay concerns the target T1, Inosine-5'-monophosphate dehydrogenase 2 (Homo sapiens, UniProt P12268). Put plainly: Inhibition of Inosine Monophosphate Dehydrogenase II (IMPDH II).
By IC50 is commonly meant the point on the concentration scale where inhibition reaches its midpoint. High values mean a need for much substance, low ones inhibition by little substance. As to `COc1cc(Nc2cnc(-c3ccccc3)s2)ccc1-c1cnco1`, the IC50 worked out at 760 nM.

Consider `COc1cc(Nc2nnc(-c3ccccc3)o2)ccc1-c1cnco1`, for which the IC50 worked out at 44 nM.

Regarding `COc1cc(Nc2cc(-c3ccccc3)on2)ccc1-c1cnco1`, half-maximal inhibition (IC50) required 120 nM.

As for `COc1cc(Nc2nc(-c3ccccc3)cs2)ccc1-c1cnco1`, the IC50 is 300 nM.

As for `COc1cc(Nc2nnc(-c3ccccc3)s2)ccc1-c1cnco1`, the half-inhibitory concentration (IC50) came out at 330 nM.

In turn, `COc1cc(-c2ccccc2)nc(Nc2ccc(-c3cnco3)c(OC)c2)n1` displayed an IC50 of 110 nM.

`COc1cc(NC2=NCC(c3ccccc3)O2)ccc1-c1cnco1` (stereo unspecified) returned an IC50 of 110 nM.

In turn, `COc1cc(Nc2noc(-c3ccccc3)n2)ccc1-c1cnco1` registered an IC50 of 59 nM.

With `COc1cc(Nc2nnc(-c3ccccc3)[nH]2)ccc1-c1cnco1`, the half-inhibitory concentration (IC50) was found to be 190 nM.

The target of the next assay is T1, Inosine-5'-monophosphate dehydrogenase 2. Put plainly: Inhibitory concentration required against Inosine Monophosphate Dehydrogenase II (IMPDH II) was determined in vitro at a concentration 100 uM.
What is called inhibition is how much of the control response was suppressed. Higher therefore signals a response far below the control. As to `COc1cc(Nc2nc(-c3ccccc3)c[nH]2)ccc1-c1cnco1`, the inhibition amounted to 7%.

A further assay has the same target. Nature of the assay: Inhibitory concentration required against Inosine Monophosphate Dehydrogenase II (IMPDH II) was determined in vitro at a concentration 500 uM.
The compound `COc1cc(Nc2cccc(-c3ccccc3)c2)ccc1-c1cnco1` displayed an inhibition of 30%.
